Experimental data reported in US20230159532A1, “PARATHYROID HORMONE (PTH) RECEPTOR ANTAGONISTS AND USES THEREOF” (Crinetics Pharmaceuticals, Inc., priority 2021, published 2023).
pKi: −log10 of the molar value.

The compounds below were run against T1, human PTHR1 receptor (Homo sapiens, UniProt Q03431) (assay: Competitive antagonist binding assay for hPTH-R1 (radioactive competition binding, SPA beads)). Details: human PTHR1 membranes, [125I]-[Nle8,18,Tyr34]-PTH(1-34) 0.2 nM, 90 minutes at room temperature; read-out: hPTHR1 Ki.
T1 construct: purchased Eurofins HTS030M
T1 sequence (Q03431 27-593): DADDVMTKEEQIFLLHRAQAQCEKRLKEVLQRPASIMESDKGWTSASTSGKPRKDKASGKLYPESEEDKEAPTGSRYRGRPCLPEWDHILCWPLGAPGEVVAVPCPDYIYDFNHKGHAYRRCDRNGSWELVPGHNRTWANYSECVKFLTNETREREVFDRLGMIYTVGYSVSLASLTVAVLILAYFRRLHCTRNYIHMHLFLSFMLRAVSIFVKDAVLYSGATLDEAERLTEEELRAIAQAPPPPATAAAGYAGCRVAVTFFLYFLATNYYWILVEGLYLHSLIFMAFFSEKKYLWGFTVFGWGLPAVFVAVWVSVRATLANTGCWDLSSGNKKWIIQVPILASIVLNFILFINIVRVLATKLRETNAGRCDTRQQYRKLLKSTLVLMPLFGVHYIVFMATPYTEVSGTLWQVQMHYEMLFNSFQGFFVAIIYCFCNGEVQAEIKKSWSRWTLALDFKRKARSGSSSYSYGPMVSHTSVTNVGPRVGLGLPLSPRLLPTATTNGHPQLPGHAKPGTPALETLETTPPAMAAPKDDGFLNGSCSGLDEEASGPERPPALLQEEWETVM
Procedure, shortened: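 Displacement of 0.2 nM radioiodinated [Nle8,18,Tyr34]-PTH(1-34) from membrane-bound human PTHR1 measured by scintillation proximity after 90 min at room temperature. Compounds typically 0-10,000 nM final, pH 7.4 HEPES/Mg/Ca buffer with BSA and detergent. Ki calculated from competition data.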

pKi, > 7.00:
CCN1C(=O)N(c2c(F)cc(NCCNCCO)cc2F)c2cc(Cl)cc(OC)c2-c2cc(F)cnc21 [1-88, 13-chloro-10-[2,6-difluoro-4-({2-[(2-hydroxyethyl)amino]ethyl}amino)phenyl]-8-ethyl-4-fluoro-15-methoxy-6,8,10-triazatricyclo[9.4.0.0^2,7]pentadeca-1(11),2(7),3,5,12,14-hexaen-9-one]
CCN1C(=O)N(c2c(F)cc(NCCNC)cc2F)c2cc(Cl)ccc2-c2cc(C#N)cnc21 [1-89, 13-chloro-10-(2,6-difluoro-4-{[2-(methylamino)ethyl]amino}phenyl)-8-ethyl-9-oxo-6,8,10-triazatricyclo[9.4.0.0^2,7]pentadeca-1(11),2(7),3,5,12,14-hexaene-4-carbonitrile]
CCN1C(=O)N(c2c(F)cc(NCCNCCO)cc2F)c2cc(Cl)ccc2-c2cc(C#N)cnc21 [1-90, 13-chloro-10-[2,6-difluoro-4-({2-[(2-hydroxyethyl)amino]ethyl}amino)phenyl]-8-ethyl-9-oxo-6,8,10-triazatricyclo[9.4.0.0^2,7]pentadeca-1(11),2(7),3,5,12,14-hexaene-4-carbonitrile]
CNCCNc1cc(F)c(N2C(=O)N(C(C)C)c3ncc(Cl)cc3-c3ccc(C#N)cc32)c(F)c1 [1-91, 4-chloro-10-(2,6-difluoro-4-{[2-(methylamino)ethyl]amino}phenyl)-9-oxo-8-(propan-2-yl)-6,8,10-triazatricyclo[9.4.0.0^2,7]pentadeca-1(11),2(7),3,5,12,14-hexaene-13-carbonitrile]
CC(C)N1C(=O)N(c2c(F)cc(NCCNCCO)cc2F)c2cc(C#N)ccc2-c2cc(Cl)cnc21 [1-92, 4-chloro-10-[2,6-difluoro-4-({2-[(2-hydroxyethyl)amino]ethyl}amino)phenyl]-9-oxo-8-(propan-2-yl)-6,8,10-triazatricyclo[9.4.0.0^2,7]pentadeca-1(11),2(7),3,5,12,14-hexaene-13-carbonitrile]
CC(C)N1C(=O)N(c2c(F)cc(NCCNCCCC(=O)O)cc2F)c2cc(C#N)ccc2-c2cc(Cl)cnc21 [1-93, 4-{[2-({4-[4-chloro-13-cyano-9-oxo-8-(propan-2-yl)-6,8,10-triazatricyclo[9.4.0.0^2,7]pentadeca-1(11),2(7),3,5,12,14-hexaen-10-yl]-3,5-difluorophenyl}amino)ethyl]amino}butanoic acid]
CCN1C(=O)N(c2c(F)cc(NCCNC)cc2F)c2cc(Cl)cc(F)c2-c2cc(F)cnc21 [1-94, 13-chloro-10-(2,6-difluoro-4-{[2-(methylamino)ethyl]amino}phenyl)-8-ethyl-4,15-difluoro-6,8,10-triazatricyclo[9.4.0.0^2,7]pentadeca-1(11),2(7),3,5,12,14-hexaen-9-one]
CCN1C(=O)N(c2c(F)cc(NCCNCCO)cc2F)c2cc(Cl)cc(F)c2-c2cc(F)cnc21 [1-95, 13-chloro-10-[2,6-difluoro-4-({2-[(2-hydroxyethyl)amino]ethyl}amino)phenyl]-8-ethyl-4,15-difluoro-6,8,10-triazatricyclo[9.4.0.0^2,7]pentadeca-1(11),2(7),3,5,12,14-hexaen-9-one]
CCN1C(=O)N(c2c(F)cc(NCCNCCCC(=O)O)cc2F)c2cc(Cl)cc(F)c2-c2cc(F)cnc21 [1-96, 4-({2-[(4-{13-chloro-8-ethyl-4,15-difluoro-9-oxo-6,8,10-triazatricyclo[9.4.0.0^2,7]pentadeca-1(11),2(7),3,5,12,14-hexaen-10-yl}-3,5-difluorophenyl)amino]ethyl}amino)butanoic acid]
CCN1C(=O)N(c2c(F)cc(NCCNC)cc2F)c2cc(C#N)ccc2-c2cc(C(F)(F)F)cnc21 [1-97, 10-(2,6-difluoro-4-{[2-(methylamino)ethyl]amino}phenyl)-8-ethyl-9-oxo-4-(trifluoromethyl)-6,8,10-triazatricyclo[9.4.0.0^2,7]pentadeca-1(11),2(7),3,5,12,14-hexaene-13-carbonitrile]
CCN1C(=O)N(c2c(F)cc(NCCNCCO)cc2F)c2cc(C#N)ccc2-c2cc(C(F)(F)F)cnc21 [1-98, 10-[2,6-difluoro-4-({2-[(2-hydroxyethyl)amino]ethyl}amino)phenyl]-8-ethyl-9-oxo-4-(trifluoromethyl)-6,8,10-triazatricyclo[9.4.0.0^2,7]pentadeca-1(11),2(7),3,5,12,14-hexaene-13-carbonitrile]
CCN1C(=O)N(c2c(F)cc(NCCNC)cc2F)c2cc(C#N)cc(F)c2-c2cc(Cl)cnc21 [1-99, 4-chloro-10-(2,6-difluoro-4-{[2-(methylamino)ethyl]amino}phenyl)-8-ethyl-15-fluoro-9-oxo-6,8,10-triazatricyclo[9.4.0.0^2,7]pentadeca-1(11),2(7),3,5,12,14-hexaene-13-carbonitrile]
CCN1C(=O)N(c2c(F)cc(NCCNCCO)cc2F)c2cc(C#N)cc(F)c2-c2cc(Cl)cnc21 [1-100, 4-chloro-10-[2,6-difluoro-4-({2-[(2-hydroxyethyl)amino]ethyl}amino)phenyl]-8-ethyl-15-fluoro-9-oxo-6,8,10-triazatricyclo[9.4.0.0^2,7]pentadeca-1(11),2(7),3,5,12,14-hexaene-13-carbonitrile]
CCN1C(=O)N(c2c(F)cc(NCCNCCCC(=O)O)cc2F)c2cc(C#N)cc(F)c2-c2cc(Cl)cnc21 [1-101, 4-({2-[(4-{4-chloro-13-cyano-8-ethyl-15-fluoro-9-oxo-6,8,10-triazatricyclo[9.4.0.0^2,7]pentadeca-1(11),2(7),3,5,12,14-hexaen-10-yl}-3,5-difluorophenyl)amino]ethyl}amino)butanoic acid]
CCN1C(=O)N(c2c(F)cc(NCCNC)cc2F)c2cc(C#N)cc(F)c2-c2cc(F)cnc21 [1-102, 10-(2,6-difluoro-4-{[2-(methylamino)ethyl]amino}phenyl)-8-ethyl-4,15-difluoro-9-oxo-6,8,10-triazatricyclo[9.4.0.0^2,7]pentadeca-1(11),2(7),3,5,12,14-hexaene-13-carbonitrile]
CCN1C(=O)N(c2c(F)cc(NCCNCCO)cc2F)c2cc(C#N)cc(F)c2-c2cc(F)cnc21 [1-103, 10-[2,6-difluoro-4-({2-[(2-hydroxyethyl)amino]ethyl}amino)phenyl]-8-ethyl-4,15-difluoro-9-oxo-6,8,10-triazatricyclo[9.4.0.0^2,7]pentadeca-1(11),2(7),3,5,12,14-hexaene-13-carbonitrile]
CCN1C(=O)N(c2c(F)cc(NCCNCCCC(=O)O)cc2F)c2cc(C#N)cc(F)c2-c2cc(F)cnc21 [1-104, 4-({2-[(4-{13-cyano-8-ethyl-4,15-difluoro-9-oxo-6,8,10-triazatricyclo[9.4.0.0^2,7]pentadeca-1(11),2(7),3,5,12,14-hexaen-10-yl}-3,5-difluorophenyl)amino]ethyl}amino)butanoic acid]
CNCCNc1cc(F)c(N2C(=O)N(C(C)C)c3ncc(F)cc3-c3ccc(Cl)cc32)c(F)c1 [1-105, 13-chloro-10-(2,6-difluoro-4-{[2-(methylamino)ethyl]amino}phenyl)-4-fluoro-8-(propan-2-yl)-6,8,10-triazatricyclo[9.4.0.0^2,7]pentadeca-1(11),2(7),3,5,12,14-hexaen-9-one]
CC(C)N1C(=O)N(c2c(F)cc(NCCNCCO)cc2F)c2cc(Cl)ccc2-c2cc(F)cnc21 [1-106, 13-chloro-10-[2,6-difluoro-4-({2-[(2-hydroxyethyl)amino]ethyl}amino)phenyl]-4-fluoro-8-(propan-2-yl)-6,8,10-triazatricyclo[9.4.0.0^2,7]pentadeca-1(11),2(7),3,5,12,14-hexaen-9-one]
CNCCNc1cc(F)c(N2C(=O)N(C(C)C)c3ncc(F)cc3-c3c(F)cc(C#N)cc32)c(F)c1 [1-107, 10-(2,6-difluoro-4-{[2-(methylamino)ethyl]amino}phenyl)-4,15-difluoro-9-oxo-8-(propan-2-yl)-6,8,10-triazatricyclo[9.4.0.0^2,7]pentadeca-1(11),2(7),3,5,12,14-hexaene-13-carbonitrile]
CC(C)N1C(=O)N(c2c(F)cc(NCCNCCO)cc2F)c2cc(C#N)cc(F)c2-c2cc(F)cnc21 [1-108, 10-[2,6-difluoro-4-({2-[(2-hydroxyethyl)amino]ethyl}amino)phenyl]-4,15-difluoro-9-oxo-8-(propan-2-yl)-6,8,10-triazatricyclo[9.4.0.0^2,7]pentadeca-1(11),2(7),3,5,12,14-hexaene-13-carbonitrile]
CNCCNc1cc(F)c(N2C(=O)N(C)c3ncc(F)cc3-c3c(F)cc(C#N)cc32)c(F)c1 [1-109, 10-(2,6-difluoro-4-{[2-(methylamino)ethyl]amino}phenyl)-4,15-difluoro-8-methyl-9-oxo-6,8,10-triazatricyclo[9.4.0.0^2,7]pentadeca-1(11),2(7),3,5,12,14-hexaene-13-carbonitrile]
